± gives the standard deviation of the averaged measurements.
System: HSV-1 K26-GFP infected primary human skin cells
Experiment: % change of HSV-1 GFP signal vs untreated infected cells; higher = less antiviral inhibition
Settings: cell type: primary dermal fibroblasts, time (h post infection): 48
Description: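 2D primary donor-derived dermal fibroblasts infected with GFP-HSV-1 K26 at MOI 1, treated 1 h later with compound dilutions and read at 48 hpi on IncuCyte. GFP integrated intensity is normalised to mock-infected and untreated infected wells (% change; -100 = full inhibition).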

Compound	% change of HSV-1 GFP signal (0.001 µM, donor: 3)	% change of HSV-1 GFP signal (0.001 µM, donor: 4)	% change of HSV-1 GFP signal (0.003 µM, donor: 3)	% change of HSV-1 GFP signal (0.003 µM, donor: 4)	% change of HSV-1 GFP signal (0.0091 µM, donor: 3)	% change of HSV-1 GFP signal (0.0091 µM, donor: 4)	% change of HSV-1 GFP signal (0.0274 µM, donor: 3)	% change of HSV-1 GFP signal (0.0274 µM, donor: 4)	% change of HSV-1 GFP signal (0.0823 µM, donor: 3)	% change of HSV-1 GFP signal (0.0823 µM, donor: 4)	% change of HSV-1 GFP signal (0.2469 µM, donor: 3)	% change of HSV-1 GFP signal (0.2469 µM, donor: 4)	% change of HSV-1 GFP signal (0.7407 µM, donor: 3)	% change of HSV-1 GFP signal (0.7407 µM, donor: 4)	% change of HSV-1 GFP signal (2.2222 µM, donor: 3)	% change of HSV-1 GFP signal (2.2222 µM, donor: 4)	% change of HSV-1 GFP signal (6.6667 µM, donor: 3)	% change of HSV-1 GFP signal (6.6667 µM, donor: 4)	% change of HSV-1 GFP signal (20 µM, donor: 3)	% change of HSV-1 GFP signal (20 µM, donor: 4)	% change of HSV-1 GFP signal (60 µM, donor: 3)	% change of HSV-1 GFP signal (60 µM, donor: 4)
Cc1cccc(C)c1N(CC(=O)Nc1ccc(-c2ncon2)cc1)C(=O)C1CCS(=O)(=O)CC1 [Amenamevir]	-1.82 ± 12%	-1.13 ± 3.8%	-1.99 ± 14%	-8.69 ± 7.3%	-11 ± 19%	-24.4 ± 12%	-15.9 ± 30%	-37.9 ± 16%	-29.7 ± 32%	-61.9 ± 17%	-63.1 ± 12%	-76.9 ± 11%	-89.6 ± 8.5%	-84.4 ± 4.2%	-98.8 ± 1.4%	-94.5 ± 4.5%	-99.52 ± 0.47%	-99 ± 1.2%	-99.36 ± 0.81%	-99.59 ± 0.24%		
COc1ccc(-c2nc(N3CCOCC3)c3sc(CN(C)c4ncc(C(=O)NO)cn4)cc3n2)cn1 [Fimepinostat]			27.2 ± 26%	-1.5 ± 7.9%	32.4 ± 31%	-0.607 ± 6%	30.4 ± 28%	-1.06 ± 14%	27.5 ± 28%	3.49 ± 9.3%	29.4 ± 28%	-2.47 ± 6.9%	21.4 ± 22%	-9.92 ± 24%	14.6 ± 16%	-5.85 ± 18%	11.3 ± 17%	-11.4 ± 14%	8.87 ± 9.2%	-9.02 ± 15%	7.95 ± 12%	-4.24 ± 17%
Nc1ccn([C@@H]2O[C@H](CO)[C@@H](O)C2(F)F)c(=O)n1 [Gemcitabine]	2.63 ± 9%		2.52 ± 8%	-2.11 ± 3.5%	1.9 ± 13%	-1.82 ± 3.8%	-32.1 ± 10%	-16.7 ± 10%	-96.7 ± 3.6%	-78 ± 21%	-99.824 ± 0.023%	-96.4 ± 6%	-99.797 ± 0.099%	-99.75 ± 0.28%	-99.74 ± 0.14%	-99.81 ± 0.17%	-99.76 ± 0.19%	-99.83 ± 0.13%	-99.73 ± 0.18%	-99.907 ± 0.068%		
CC(C)c1cnn2c(NCc3ccccc3-n3cccn3)nc(OC3CCCNC3)nc12 (stereo not drawn) [LDC4297]			20.9 ± 32%		21.8 ± 34%	2.39 ± 18%	21.6 ± 34%	1.27 ± 22%	14.2 ± 35%	-5.21 ± 23%	-5.39 ± 37%	-24 ± 20%	-27.1 ± 25%	-34.7 ± 12%	-57.2 ± 13%	-53.3 ± 1.5%	-98.3 ± 1.2%	-92.4 ± 3.9%	-100.3 ± 0.64%	-99.916 ± 0.033%	-100.3 ± 0.73%	-99.83 ± 0.18%

Source: the supplement of paper PMC12533247
